One data set has as its target T1, recombinant human PDE5 (Homo sapiens, UniProt O76074).
T1 construct: purchased BPS Biosciences, San Diego, CA
Nature of the data set: IMAP fluorescence polarization phosphodiesterase assay (TAMRA-cGMP substrate). In kind it is biochemical. The following applies: for IC50: 10 concentrations, at least two replicates per concentration, read-out: PDE5 inhibition IC50; for PDE5 inhibition, result in words: SAR discussion; for inhibition at 10 µM: read-out: %PDE5 inhibition at 10 μM. The method, then: PDE activity was measured using a modification of the IMAP fluorescence polarization phosphodiesterase assay from Molecular Devices. The assay was modified to use tetramethylrhodamine- (TAMRA-) cGMP as substrate. PDE hydrolysis of the fluorescent labeled substrate allows it to bind the IMAP binding reagent, which results in increased FP. […] The assays were performed in 96-well microtiter plates using a reaction buffer containing 10 mM Tris-HCl (pH 7.2), 10 mM MgCl2, 0.05% NaN3, and 0.1% phosphate-free BSA as the carrier. Each well contained 20 μL of recombinant enzyme (5 units//mL, BPS Biosciences, San Diego, CA) and 10 μL test agent. The reaction was initiated by the addition of 10 μL of a substrate solution containing 50 nM TAMRA-cGMP. After incubating at room temperature for 60 minutes, the reaction was terminated by adding 120 μL of binding solution. FP was measured by a Perkin Elmer Envision plate reader.
Dose response curves were analyzed using Prism 4 software (GraphPad) to calculate IC50 values using a four-parameter logistic equation. All in vitro experiments involved dose-response analysis were repeated at least twice to confirm reproducibility of IC50 values.
For orientation: Polarisation of emitted light reports the rotation of a fluorescent probe.

The mark [1] stands for this setting: screening dose 10 μM, triplicate.

SMILES strings stand for the structures. Where two headings read alike, the source gives them in different places.

Usually IC50 stands for the point on the concentration scale where inhibition reaches its midpoint. For orientation: inhibition means the drop in the measured response relative to a control, in per cent. Broadly, the melting point is the temperature of the solid-liquid transition. The molecule `CCN1C(=O)[C@@H]2Cc3c([nH]c4ccccc34)[C@@H](c3ccc(OC)cc3OC)N2C1=O` [Compound 8, (5R,11aS)-2-Ethyl-5-(2,4-dimethoxyphenyl)-5,6,11,11a-tetrahydro-1-H-imidazo[5,1-6,1]pyrido[3,4-b]indole-1,3-dione] gave a melting point of 192 to 195 °C. In addition, on recombinant human PDE5, the IC50 came out at 360 nM and the “PDE5 inhibition, result in words” value is “active PDE5 inhibitors”. Also, the inhibition at 10 µM at recombinant human PDE5 (setting [1]) was 97%.

Turning to `COc1ccc([C@H]2c3[nH]c4ccccc4c3C[C@@H]3C(=O)N(c4ccc(Cl)cc4)C(=O)N23)c(OC)c1` [Compound 14, (5S,11aR)-2-(P-Chlorophenyl)-5-(2,4-dimethoxyphenyl)-5,6,11,11a-tetrahydro-1-H-imidazo[5,1-6,1]pyrido[3,4-b]indole-1,3-dione], the melting point was 214 to 216 °C. Moreover, the inhibition at 10 µM on recombinant human PDE5 (setting [1]) was found to be 60%.

With `CCN1C(=O)[C@@H]2Cc3c([nH]c4ccccc34)[C@H](c3ccc(OC)cc3OC)N2C1=O` [Compound 7, (5S,11aS)-2-Ethyl-5-(2,4-dimethoxyphenyl)-5,6,11,11a-tetrahydro-1-H-imidazo[5,1-6,1]pyrido[3,4-b]indole-1,3-dione], the melting point was in the range of 217 to 220 °C. Also, on recombinant human PDE5 (setting [1]), the inhibition at 10 µM came to 54%.

In the case of `COc1ccc([C@H]2c3[nH]c4ccccc4c3C[C@@H]3C(=O)N(C)C(=S)N23)c(OC)c1` [Compound 18, (5S,11aR)-2-Methyl-1-oxo-5-(2,4-dimethoxyphenyl)-5,6,11,11a-tetrahydro-1-H-imidazo[5,1-1,6]pyrido[3,4-b]indole-3(2H)-thione], the melting point is 188 to 190 °C. The inhibition at 10 µM at recombinant human PDE5 (setting [1]) was determined as 23%.

On to `COC(=O)[C@H]1Cc2c([nH]c3ccccc23)[C@H](c2ccc(OC)cc2OC)N1` [Compound 2, (1S,3R) Methyl-1-(2,4-dimethoxyphenyl)-2,3,4,9-tetrahydro-1-H-pyrido[3,4-b]indole-3-carboxylate], for which the melting point lay within 146 to 147 °C. Besides, the inhibition at 10 µM at recombinant human PDE5 (setting [1]) was found to be 63%.

`COc1ccc([C@H]2c3[nH]c4ccccc4c3C[C@H]3C(=O)N(C(C)(C)C)C(=O)N23)c(OC)c1` [Compound 11, (5S,11aS)-2-Tertiarybutyl-5-(2,4-dimethoxyphenyl)-5,6,11,11a-tetrahydro-1-H-imidazo[5,1-6,1]pyrido[3,4-b]indole-1,3-dione] registered a melting point of 103 to 106 °C. On recombinant human PDE5 (setting [1]), the inhibition at 10 µM stood at 46%.

Take `COc1ccc([C@@H]2c3[nH]c4ccccc4c3C[C@@H]3C(=O)N(c4ccc(Cl)cc4)C(=O)N23)c(OC)c1` [Compound 13, (5R,11aR)-2-(P-Chlorophenyl)-5-(2,4-dimethoxyphenyl)-5,6,11,11a-tetrahydro-1H-imidazo[5,1-6,1]pyrido[3,4-b]indole-1,3-dione]: the melting point is 134 to 136 °C. Also, the inhibition at 10 µM on recombinant human PDE5 (setting [1]) came out at 63%.

On to `COc1ccc([C@H]2c3[nH]c4ccccc4c3C[C@H]3C(=O)N(c4ccc(Cl)cc4)C(=O)N23)c(OC)c1` [Compound 15, (5S,11aS)-2-(P-Chlorophenyl)-5-(2,4-dimethoxyphenyl)-5,6,11,11a-tetrahydro-1-H-imidazo[5,1-6,1]pyrido[3,4-b]indole-1,3-dione], for which the melting point fell in the range of 135 to 138 °C. Also, the inhibition at 10 µM at recombinant human PDE5 (setting [1]) was found to be 35%.

As for `COC(=O)[C@@H]1Cc2c([nH]c3ccccc23)[C@@H](c2ccc(OC)cc2OC)N1` [Compound 4, (1R,3S) Methyl-1-(2,4-dimethoxyphenyl)-2,3,4,9-tetrahydro-1-H-pyrido[3,4-b]indole-3-carboxylate], the melting point was in the range of 148 to 150 °C. Also, the IC50 on recombinant human PDE5 came out at 6400 nM. The inhibition at 10 µM on recombinant human PDE5 (setting [1]) came out at 75%.

`C=CCN1C(=O)[C@H]2Cc3c([nH]c4ccccc34)[C@H](c3ccc(OC)cc3OC)N2C1=S` [Compound 20, (5S,11aR)-2-Allyl-1-oxo-5-(2,4-dimethoxyphenyl)-5,6,11,11a-tetrahydro-1H-imidazo[5,1-6,6,1]pyrido[3,4-b]indole-3(2H)-thione] gave a melting point of 224 to 227 °C. Also, the inhibition at 10 µM on recombinant human PDE5 (setting [1]) was 58%.

`CCN1C(=O)[C@H]2Cc3c([nH]c4ccccc34)[C@H](c3ccc(OC)cc3OC)N2C1=O` [Compound 6, (5S,11aR)-2-Ethyl-5-(2,4-dimethoxyphenyl)-5,6,11,11a-tetrahydro-1-H-imidazo[5,1-6,1]pyrido[3,4-b]indole-1,3-dione] had a melting point of 190 to 193 °C. Further, on recombinant human PDE5, the IC50 came out at 720 nM and the “PDE5 inhibition, result in words” value is “active”. Further, the inhibition at 10 µM at recombinant human PDE5 (setting [1]) was 88%.

Molecule `COc1ccc([C@@H]2c3[nH]c4ccccc4c3C[C@@H]3C(=O)N(C(C)(C)C)C(=O)N23)c(OC)c1` [Compound 9, (5R,11aR)-2-Tertiarybutyl-5-(2,4-dimethoxyphenyl)-5,6,11,11a-tetrahydro-1-H-imidazo[5,1-6,1]pyrido[3,4-b]indole-1,3-dione] returned a melting point of 108 to 110 °C. In addition, on recombinant human PDE5, the IC50 came out at 2400 nM and the “PDE5 inhibition, result in words” value is “active PDE5 inhibitors”. For the same molecule, the inhibition at 10 µM on recombinant human PDE5 (setting [1]) was 83%.

For `CN1CC(=O)N2[C@H](c3ccc4c(c3)OCO4)c3[nH]c4ccccc4c3C[C@@H]2C1=O` [Tadalafil, tadalafil, reference compound], on recombinant human PDE5, the inhibition at 10 µM amounted to 99%.

With `COc1ccc([C@@H]2c3[nH]c4ccccc4c3C[C@H]3C(=O)N(C(C)(C)C)C(=O)N23)c(OC)c1` [Compound 12, (5R,11aS)-2-Tertiarybutyl-5-(2,4-dimethoxyphenyl)-5,6,11,11a-tetrahydro-1-H-imidazo[5,1-6,1]pyrido[3,4-b]indole-1,3-dione], the melting point was in the range of 193 to 195 °C. For the same molecule, at recombinant human PDE5, the half-inhibitory concentration (IC50) was determined as 550 nM and the “PDE5 inhibition, result in words” value is on record as “active PDE5 inhibitors”. Further, the inhibition at 10 µM on recombinant human PDE5 (setting [1]) came out at 87%.

As for `COC(=O)[C@H]1Cc2c([nH]c3ccccc23)[C@@H](c2ccc(OC)cc2OC)N1` [Compound 1, (1R, 3R) Methyl-1-(2,4-dimethoxyphenyl)-2,3,4,9-tetrahydro-1-H-pyrido[3,4-b]indole-3-carboxylate], the melting point lay within 86 to 88 °C. Moreover, the IC50 on recombinant human PDE5 amounted to 2500 nM. Moreover, at recombinant human PDE5 (setting [1]), the inhibition at 10 µM came to 77%.

`COc1ccc([C@@H]2c3[nH]c4ccccc4c3C[C@H]3C(=O)N(c4ccc(Cl)cc4)C(=O)N23)c(OC)c1` [Compound 16, (5R,11aS)-2-(P-Chlorophenyl)-5-(2,4-dimethoxyphenyl)-5,6,11,11a-tetrahydro-1-H-imidazo[5,1-6,1]pyrido[3,4-b]indole-1,3-dione] gave a melting point of 212 to 215 °C. The inhibition at 10 µM at recombinant human PDE5 (setting [1]) worked out at 63%.

`COc1ccc([C@@H]2c3[nH]c4ccccc4c3C[C@H]3C(=O)N(C)C(=S)N23)c(OC)c1` [Compound 17, (5R,11aS)-2-Methyl-1-oxo-5-(2,4-dimethoxyphenyl)-5,6,11,11a-tetrahydro-1H-imidazo[5,1-6,1]pyrido[3,4-b]indole-3(2H)-thione]: the melting point fell in the range of 188 to 191 °C. Also, the inhibition at 10 µM on recombinant human PDE5 (setting [1]) came to 29%.

`CCN1C(=O)[C@H]2Cc3c([nH]c4ccccc34)[C@@H](c3ccc(OC)cc3OC)N2C1=O` [Compound 5, (5R,11aR)-2-Ethyl-5-(2,4-dimethoxyphenyl)-5,6,11,11a-tetrahydro-1-H-imidazo[5,1-6,1]pyrido[3,4-b]indole-1,3-dione] came in with a melting point of 216 to 218 °C. Further, at recombinant human PDE5, the IC50 came out at 360 nM and the “PDE5 inhibition, result in words” value was “active PDE5 inhibitors”. At recombinant human PDE5 (setting [1]), the inhibition at 10 µM was 87%.

Molecule `COC(=O)[C@@H]1Cc2c([nH]c3ccccc23)[C@H](c2ccc(OC)cc2OC)N1` [Compound 3, (1S,3S) Methyl-1-(2,4-dimethoxyphenyl)-2,3,4,9-tetrahydro-1-H-pyrido[3,4-b]indole-3-carboxylate] displayed a melting point of 88 to 90 °C. On recombinant human PDE5 (setting [1]), the inhibition at 10 µM stood at 55%.

Turning to `C=CCN1C(=O)[C@@H]2Cc3c([nH]c4ccccc34)[C@@H](c3ccc(OC)cc3OC)N2C1=S` [Compound 19, (5R,11aS)-2-Allyl-1-oxo-5-(2,4-dimethoxyphenyl)-5,6,11,11a-tetrahydro-1H-imidazo[5,1-1,6]pyrido[3,4-b]indole-3(2H)-thione], the melting point fell in the range of 224 to 227 °C. The IC50 at recombinant human PDE5 amounted to 560 nM. The inhibition at 10 µM on recombinant human PDE5 (setting [1]) turned out to be 87%.

Consider `COc1ccc([C@H]2c3[nH]c4ccccc4c3C[C@@H]3C(=O)N(C(C)(C)C)C(=O)N23)c(OC)c1` [Compound 10, (5S,11aR)-2-Tertiarybutyl-5-(2,4-dimethoxyphenyl)-5,6,11,11a-tetrahydro-1-H-imidazo[5,1-6,1]pyrido[3,4-b]indole-1,3-dione], for which the melting point was in the range of 191 to 193 °C. The inhibition at 10 µM at recombinant human PDE5 (setting [1]) came to 68%.

The record behind these values is article PMC4939265, “Synthesis, Molecular Modeling, and Biological Evaluation of Novel Tetrahydro-β-Carboline Hydantoin and Tetrahydro-β-Carboline Thiohydantoin Derivatives as Phosphodiesterase 5 Inhibitors” (International Journal of Medicinal Chemistry, 2011).
